Like-named read-outs stand apart in the source and are kept apart here.
Molecular target: T1, Human Factor D (Homo sapiens, UniProt P00746)
T1 construct: purified from human serum; purchased Complement Technology, Inc; host or cells: human serum
Assay: Human Factor D assay (Example 8)
Assay type: biochemical
Method: Human Factor D (purified from human serum, Complement Technology, Inc.) at 80 nM final concentration was incubated with test compound at various concentrations for 5 minutes at room temperature in 50 mM Tris, 1M NaCl, pH 7.5. A synthetic substrate Z-L-Lys-SBzl and DTNB (Ellman's reagent) are added to final concentrations of 100 μM each. […] IC50 values are calculated by nonlinear regression of complement Factor D reaction rates as a function of test compound concentration.

[1] = Table 1, Human Factor D 80 nM, substrate Z-L-Lys-SBzl, read-out: IC50

T1 sequence (P00746 26-253): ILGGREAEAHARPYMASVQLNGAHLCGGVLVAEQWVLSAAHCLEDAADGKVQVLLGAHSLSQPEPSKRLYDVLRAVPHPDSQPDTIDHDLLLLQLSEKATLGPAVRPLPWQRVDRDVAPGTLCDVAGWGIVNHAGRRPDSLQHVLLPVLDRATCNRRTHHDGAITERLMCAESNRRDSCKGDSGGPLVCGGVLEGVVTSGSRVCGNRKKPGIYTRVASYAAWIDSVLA

Row | IC50 [1] [µM] | Structure (SMILES) | IC50 [µM]
1 | > 10 | NC(=O)N1C[C@H](F)C[C@H]1Cn1cc(-c2ccc(F)c(Cl)c2)nn1 [Compound 30, (2S,4R)-2-((4-(3-chloro-4-fluorophenyl)-1H-1,2,3-triazol-1-yl)methyl)-4-fluoropyrrolidine-1-carboxamide] | –
2 | > 10 | NC(=O)n1cc(NC(=O)C2=C(C(=O)NCc3cccc(Cl)c3F)CCC2)c2ccccc21 [Compound 31, N1-(1-carbamoyl-1H-indol-3-yl)-N2-(3-chloro-2-fluorobenzyl)cyclo-pent-1-ene-1,2-dicarboxamide] | –
3 | > 10 | CC(=O)c1cn(CC(=O)N2C[C@H](F)C[C@H]2C(=O)N2Cc3ccccc3C2)c2ccccc12 [Compound 33, 2-(3-acetyl-1H-indol-1-yl)-1-((2S,4R)-4-fluoro-2-(isoindoline-2-carbonyl)pyrrolidin-1-yl)ethanone] | –
4 | > 10 | CC(=O)c1cn(CC(=O)N2C[C@H](F)C[C@H]2C(=O)N(C)Cc2cccc(Cl)c2F)c2ccccc12 [Compound 34, (2S,4R)-1-(2-(3-acetyl-1H-indol-1-yl)acetyl)-N-(3-chloro-2-fluorobenzyl)-4-fluoro-N-methylpyrrolidine-2-carboxamide] | –
5 | – | CC(=O)c1cn(CC(=O)N2[C@H](C(=O)NCc3cccc(Cl)c3F)C[C@@H]3CCCC[C@@H]32)c2cc(O)ccc12 [Compound 35, (2S,3aS,7aS)-1-(2-(3-acetyl-6-hydroxy-1H-indol-1-yl)acetyl)-N-(3-chloro-2-fluorobenzyl)octa-hydro-1H-indole-2-carboxamide] | < 1
6 | < 1 | N#Cc1cn(CC(=O)N2C[C@H](F)C[C@H]2C(=O)NCc2cccc(Cl)c2F)c2ccccc12 [Compound 36, (2S,4R)-N-(3-chloro-2-fluorobenzyl)-1-(2-(3-cyano-1H-indol-1-yl)acetyl)-4-fluoropyrrolidine-2-carboxamide] | –
7 | < 1 | O=C1CCCc2c1c1ccccc1n2CC(=O)N1C[C@H](F)C[C@H]1C(=O)NCc1cccc(Cl)c1F [Compound 37, (2S,4R)-N-(3-chloro-2-fluorobenzyl)-4-fluoro-1-(2-(4-oxo-3,4-dihydro-1H-carbazol-9(2H)-yl)acetyl)pyrrolidine-2-carboxamide] | –
8 | > 10 | CC(C)(C)OC(=O)N[C@@H](Cc1c[nH]c2ccccc12)C(=O)N1C[C@H](F)C[C@H]1C(=O)NCc1cccc(Cl)c1F [Compound 38, tert-butyl (S)-1-((2S,4R)-2-(3-chloro-2-fluorobenzylcarbamoyl)-4-fluoropyrrolidin-1-yl)-3-(1H-indol-3-yl)-1-oxopropan-2-ylcarbamate] | –
9 | > 10 | N[C@@H](Cc1c[nH]c2ccccc12)C(=O)N1C[C@H](F)C[C@H]1C(=O)NCc1cccc(Cl)c1F [Compound 39, (2S,4R)-1-((S)-2-amino-3-(1H-indol-3-yl)propanoyl)-N-(3-chloro-2-fluorobenzyl)-4-fluoropyrrolidine-2-carboxamide] | –
10 | < 1 | CC(=O)c1nn(CC(=O)N2C[C@H](F)C[C@H]2C(=O)Nc2cccc(SC(F)(F)F)c2)c2cnccc12 [Compound 45, (2S,4R)-1-(2-(3-acetyl-1H-pyrazolo[3,4-c]pyridin-1-yl)acetyl)-4-fluoro-N-(3-(trifluoromethylthio)phenyl)pyrrolidine-2-carboxamide] | –
11 | < 1 | O=C(NCc1cccc(Cl)c1F)[C@@H]1C[C@@H](F)CN1C(=O)Cn1cc([N+](=O)[O-])c2ccccc21 [Compound 46, (2S,4R)-N-(3-chloro-2-fluorobenzyl)-4-fluoro-1-(2-(3-nitro-1H-indol-1-yl)acetyl)pyrrolidine-2-carboxamide] | –
12 | < 1 | CC(=O)Nc1cn(CC(=O)N2C[C@H](F)C[C@H]2C(=O)NCc2cccc(Cl)c2F)c2ccccc12 [Compound 47, (2S,4R)-1-(2-(3-acetamido-1H-indol-1-yl)acetyl)-N-(3-chloro-2-fluorobenzyl)-4-fluoropyrrolidine-2-carboxamide] | –
13 | – | CC(=O)c1cn(CC(=O)N2C[C@H](F)C[C@H]2C(=O)Nc2cccc(SC(F)(F)F)c2)c2cc(O)ccc12 [Compound 48, (2S,4R)-1-(2-(3-acetyl-6-hydroxy-1H-indol-1-yl)acetyl)-4-fluoro-N-(3-(trifluoromethylthio)phenyl)pyrrolidine-2-carboxamide] | < 1
14 | > 10 | O=C(NCc1cccc(Cl)c1F)[C@@H]1C[C@@H](F)CN1C(=O)c1csc(-c2cccnc2)n1 [Compound 50, (2S,4R)-N-(3-chloro-2-fluorobenzyl)-4-fluoro-1-(2-(pyridin-3-yl)thiazole-4-carbonyl)pyrrolidine-2-carboxamide] | –
15 | > 10 | CC(=O)Nc1ccc(C(=O)N2C[C@H](F)C[C@H]2C(=O)NCc2cccc(Cl)c2F)cn1 [Compound 51, (2S,4R)-1-(6-acetamidonicotinoyl)-N-(3-chloro-2-fluorobenzyl)-4-fluoropyrrolidine-2-carboxamide] | –
16 | < 1 | O=C(NCc1cccc(Cl)c1F)[C@@H]1C[C@@H](F)CN1C(=O)Cn1nc(I)c2ccncc21 [Compound 52, (2S,4R)-N-(3-chloro-2-fluorobenzyl)-4-fluoro-1-(2-(3-iodo-1H-pyrazolo[3,4-c]pyridin-1-yl)acetyl)pyrrolidine-2-carboxamide] | –

Row | IC50 [1] [µM] | Structure (SMILES) | IC50 [µM]
17 | < 1 | O=C(NCc1cccc(Cl)c1F)[C@@H]1C[C@@H](F)CN1C(=O)Nc1cn(C(=O)C2CC2)c2ccccc12 [Compound 54, (2S,4R)-N2-(3-chloro-2-fluorobenzyl)-N1-(1-(cyclopropanecarbonyl)-1H-indol-3-yl)-4-fluoropyrrolidine-1,2-dicarboxamide] | –
18 | > 10 | CC(=O)c1cn(C(C)C(=O)N2C[C@H](F)C[C@H]2C(=O)NCc2cccc(Cl)c2F)c2ccccc12 (stereo partly shown) [Compound 55] | –
19 | > 10 | CC(=O)c1cn(C(C)(C)C(=O)N2C[C@H](F)C[C@H]2C(=O)NCc2cccc(Cl)c2F)c2ccccc12 [Compound 56] | –
20 | > 10 | O=C(NCc1cccc(Cl)c1F)[C@@H]1C[C@@H](F)CN1C(=O)Cn1nc(P(=O)(O)O)c2ccncc21 [Compound 57] | –
21 | – | CC(=O)c1cn(CC(=O)N2C[C@H](F)C[C@H]2C(=O)NCc2cc(P(=O)(O)O)cc(Cl)c2F)c2ccccc12 [Compound 63, 3-(((2S,4R)-1-(2-(3-acetyl-1H-indol-1-yl)acetyl)-4-fluoropyrrolidine-2-carboxamido)methyl)-5-chloro-4-fluorophenylphos-phonic acid] | < 1
22 | > 10 | O=C(NCc1cccc(Cl)c1F)[C@@H]1C[C@@H](F)CN1C(=O)CN1C=NS(=O)(=O)c2ccccc21 [Compound 65, (2S,4R)-N-(3-chloro-2-fluorobenzyl)-1-(2-(1,1-dioxido-4H-benzo[e][1,2,4]thiadiazin-4-yl)acetyl)-4-fluoropyrrolidine-2-carboxamide] | –
23 | > 10 | CC(C)(C)OC(=O)N1CCc2c(n(CC(=O)N3C[C@H](F)C[C@H]3C(=O)NCc3cccc(Cl)c3F)c3ccccc23)C1 [Compound 67, tert-butyl 9-(2-((2S,4R)-2-(3-chloro-2-fluorobenzylcarbamoyl)-4-fluoropyrrolidin-1-yl)-2-oxoethyl)-3,4-dihydro-1H-pyrido[3,4-b]indole-2(9H)-carboxylate] | –
24 | > 10 | O=C(NCc1cccc(Cl)c1F)[C@@H]1C[C@@H](F)CN1C(=O)Cn1c2c(c3ccccc31)CCNC2 [Compound 68, (2S,4R)-N-(3-chloro-2-fluorobenzyl)-1-(2-(3,4-dihydro-1H-pyrido[3,4-b]indol-9(2H)-yl)acetyl)-4-fluoropyrrolidine-2-carboxamide] | –
25 | > 10 | CCOC(=O)CC(=O)N1CCc2c(n(CC(=O)N3C[C@H](F)C[C@H]3C(=O)NCc3cccc(Cl)c3F)c3ccccc23)C1 [Compound 70, ethyl 3-(9-(2-((2S,4R)-2-(3-chloro-2-fluorobenzylcarbamoyl)-4-fluoropyrrolidin-1-yl)-2-oxoethyl)-3,4-dihydro-1H-pyrido[3,4-b]indol-2(9H)-yl)-3-oxopropanoate] | –
26 | > 10 | CC(=O)n1cc(C(=O)C(=O)N2C[C@H](F)C[C@H]2C(=O)NCc2cccc(Cl)c2F)c2ccccc21 [Compound 71, (2S,4R)-1-(2-(1-acetyl-1H-indol-3-yl)-2-oxoacetyl)-N-(3-chloro-2-fluorobenzyl)-4-fluoropyrrolidine-2-carboxamide] | –
27 | > 10 | O=C(O)CCC(=O)N1CCc2c(n(CC(=O)N3C[C@H](F)C[C@H]3C(=O)NCc3cccc(Cl)c3F)c3ccccc23)C1 [Compound 72, 4-(9-(2-((2S,4R)-2-(3-chloro-2-fluorobenzylcarbamoyl)-4-fluoropyrrolidin-1-yl)-2-oxoethyl)-3,4-dihydro-1H-pyrido[3,4-b]indol-2(9H)-yl)-4-oxobutanoic acid] | –
28 | < 1 | O=C(NCc1cccc(Cl)c1F)[C@@H]1C[C@@H](F)CN1C(=O)Cn1nc(-c2cn[nH]c2)c2ccncc21 [Compound 73, (2S,4R)-1-(2-(3-(1H-pyrazol-4-yl)-1H-pyrazolo[3,4-c]pyridin-1-yl)acetyl)-N-(3-chloro-2-fluorobenzyl)-4-fluoropyrrolidine-2-carboxamide] | –
29 | < 1 | C=C(F)c1nn(CC(=O)N2C[C@H](F)C[C@H]2C(=O)NCc2cccc(Cl)c2F)c2cnccc12 [Compound 74, (2S,4R)-N-(3-chloro-2-fluorobenzyl)-4-fluoro-1-(2-(3-(1-fluorovinyl)-1H-pyrazolo[3,4-c]pyridin-1-yl)acetyl)pyrrolidine-2-carboxamide] | –
30 | < 1 | O=C(NCc1cccc(Cl)c1F)[C@@H]1C[C@@H](F)CN1C(=O)Cn1nc(-c2cnc[nH]2)c2ccncc21 [Compound 75, (2S,4R)-1-(2-(3-(1H-imidazol-5-yl)-1H-pyrazolo[3,4-c]pyridin-1-yl)acetyl)-N-(3-chloro-2-fluorobenzyl)-4-fluoropyrrolidine-2-carboxamide] | –
31 | < 1 | NS(=O)(=O)c1cn(CC(=O)N2C[C@H](F)C[C@H]2C(=O)NCc2cccc(Cl)c2F)c2ccccc12 [Compound 76, (2S,4R)-N-(3-chloro-2-fluorobenzyl)-4-fluoro-1-(2-(3-sulfamoyl-1H-indol-1-yl)acetyl)pyrrolidine-2-carboxamide] | –
